Patent US20220396569A1 (Carmot Therapeutics, Inc., priority 2021, published 2022)

Biological target: T1, human GLP-1 receptor (Homo sapiens, UniProt P43220)
T1 construct: expressed in transfected cells
Assay: GLP-1R cAMP Assay (HitHunter cAMP accumulation)
Format: cell-based
Settings: cAMP accumulation, CHO cells stably overexpressing human GLP-1 receptor, 30 min treatment; read-out: EC50
Experimental: cAMP accumulation was measured in Chinese hamster ovary (CHO) cells stably overexpressing the human GLP-1 receptor using the HitHunter cAMP Assay for Small Molecules Kit (Eurofins). Briefly, cells were grown in Ham's F12 Nutrient Mix with 10% FBS, and lifted with Cell Dissociation Buffer, Enzyme free, PBS based (ThermoFisher). Cells were pelleted, and resuspended in Hank's buffered saline solution with 10 mM HEPES, and 625 μM 3-isobutyl-1-methylxanthine. The anti-cAMP antibody reagent was then added to cells at a 1:2 ratio and 5 μL of mixture was seeded in 384-well small volume white assay plates, at 10,000 cells/well. Cells were then treated with 50 nL compound using an ECHO 550 acoustic dispenser (Labcyte) in a 20-point dose response format in triplicate for 30 min. Cells were then lysed, and detection reagents added according to the manufacturer's protocol. After overnight incubation, luminescence was measured using a Perkin Elmer Envision plate reader. Dose response curves were analyzed using GraphPad Prism 9.0. […]

T1 sequence (P43220 24-463): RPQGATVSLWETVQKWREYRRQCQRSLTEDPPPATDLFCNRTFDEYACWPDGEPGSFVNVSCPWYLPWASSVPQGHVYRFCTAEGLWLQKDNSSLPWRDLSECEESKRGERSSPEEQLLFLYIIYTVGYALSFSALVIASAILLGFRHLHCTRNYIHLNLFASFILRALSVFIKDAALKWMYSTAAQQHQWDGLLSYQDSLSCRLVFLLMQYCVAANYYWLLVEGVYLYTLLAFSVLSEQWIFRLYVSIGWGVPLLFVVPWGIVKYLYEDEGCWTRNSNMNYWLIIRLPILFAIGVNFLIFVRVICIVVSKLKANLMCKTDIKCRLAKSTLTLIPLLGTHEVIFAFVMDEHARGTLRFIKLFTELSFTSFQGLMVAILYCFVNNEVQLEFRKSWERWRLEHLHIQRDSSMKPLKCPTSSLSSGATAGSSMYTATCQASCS

EC50 [µM] | Compound
< 0.05 | O=C(O)c1ccc2nc(CN3CC(=Cc4cccc(COc5ccc(Cl)cc5Cl)c4)C3)n(C[C@@H]3CCO3)c2c1 [Compound 195]
< 0.05 | O=C(O)c1ccc2nc(CN3CC(Cc4ccnc(COc5ccc(Cl)cc5Cl)c4)C3)n(C[C@@H]3CCO3)c2c1 [Example 177, (S)-2-((3-((2-((2,4-Dichlorophenoxy)methyl)pyridin-4-yl)methyl)azetidin-1-yl)methyl)-1-(oxetan-2-ylmethyl)-1H-benzo[d]imidazole-6-carboxylic acid]
< 0.05 | CCn1cncc1Cn1c(CN2CC(=Cc3cnc(COc4ccc(Cl)cc4C#N)o3)C2)nc2ccc(C(=O)O)cc21 [Compound 225, 2-{[3-({2-[(4-chloro-2-cyanophenoxy)methyl]-1,3-oxazol-5-yl}methylidene)azetidin-1-yl]methyl}-1-[(1-ethyl-1H-imidazol-5-yl)methyl]-1H-1,3-benzodiazole-6-carboxylic acid]
< 0.05 | CCn1cncc1Cn1c(Cc2ccc(Oc3ccnc(COc4ccc(C#N)cc4F)n3)cc2F)nc2ccc(C(=O)O)cc21 [Example 460, 2-(4-((2-((4-Cyano-2-fluorophenoxy)methyl)pyrimidin-4-yl)oxy)-2-fluorobenzyl)-1-((1-ethyl-1H-imidazol-5-yl)methyl)-1H-benzo[d]imidazole-6-carboxylic acid]
< 0.05 | N#Cc1ccc(OCc2cc(Oc3ccc(Cc4nc5c(F)cc(C(=O)O)cc5n4C[C@@H]4CCO4)c(C#N)c3)ccn2)c(F)c1 [Compound 543, 2-{[2-cyano-4-({2-[(4-cyano-2-fluorophenoxy)methyl]pyridin-4-yl}oxy)phenyl]methyl}-4-fluoro-1-{[(2S)-oxetan-2-yl]methyl}-1H-1,3-benzodiazole-6-carboxylic acid]
< 0.05 | C[C@H]1[C@@H](Oc2ccnc(COc3ccc(Cl)cc3F)n2)CN1Cc1nc2ccc(C(=O)O)cc2n1C[C@@H]1CCO1 [Compound 547, 2-{[(2S,3S)-3-({2-[(4-chloro-2-fluorophenoxy)methyl]pyrimidin-4-yl}oxy)-2-methylazetidin-1-yl]methyl}-1-{[(2S)-oxetan-2-yl]methyl}-1H-1,3-benzodiazole-6-carboxylic acid]
< 0.05 | N#Cc1cc(Cl)ccc1OCc1cc(OC2CN(Cc3nc4ccc(C(=O)O)cc4n3C[C@@H]3CCO3)C2)ccn1 [Example 193, (S)-2-((3-((2-((4-Chloro-2-cyanophenoxy)methyl)pyridin-4-yl)oxy)azetidin-1-yl)methyl)-1-(oxetan-2-ylmethyl)-1H-benzo[d]imidazole-6-carboxylic acid]
< 0.05 | N#Cc1ccc(OCc2nccc(O[C@H]3C[C@@H](Cc4nc5ccc(C(=O)O)cc5n4C[C@@H]4CCO4)C3)n2)c(F)c1 [Compound 551]
< 0.05 | O=C(O)c1ccc2nc(CN3CC=C(c4cc(COc5ccc(Cl)cc5F)ccc4F)C3)n(C[C@@H]3CCO3)c2c1 [Compound 417, 2-[(3-{5-[(4-chloro-2-fluorophenoxy)methyl]-2-fluorophenyl}-2,5-dihydro-1H-pyrrol-1-yl)methyl]-1-{[(2S)-oxetan-2-yl]methyl}-1H-1,3-benzodiazole-6-carboxylic acid]
< 0.05 | N#Cc1ccc(OCc2ccc(F)c(C3CCN(Cc4nc5c(F)cc(C(=O)O)cc5n4C[C@@H]4CCO4)C3)n2)c(F)c1 (stereo partly drawn) [Compound 521, 2-[(3-{6-[(4-cyano-2-fluorophenoxy)methyl]-3-fluoropyridin-2-yl}pyrrolidin-1-yl)methyl]-4-fluoro-1-{[(2S)-oxetan-2-yl]methyl}-1H-1,3-benzodiazole-6-carboxylic acid]
< 0.05 | O=C(O)c1ccc2nc(CN3CC[C@@H](c4ccc(F)c(COc5ccc(Cl)cc5F)c4)C3)n(C[C@@H]3CCO3)c2c1 [Compound 446, 2-{[(3S)-3-{3-[(4-chloro-2-fluorophenoxy)methyl]-4-fluorophenyl}pyrrolidin-1-yl]methyl}-1-{[(2S)-oxetan-2-yl]methyl}-1H-1,3-benzodiazole-6-carboxylic acid]
< 0.05 | O=C(O)c1ccc2nc(CN3CC(Cc4ccnc(COc5ccc(Cl)cc5Cl)c4)C3)n(Cc3ncco3)c2c1 [Compound 181, 2-{[3-({2-[(2,4-dichlorophenoxy)methyl]pyridin-4-yl}methyl)azetidin-1-yl]methyl}-1-[(1,3-oxazol-2-yl)methyl]-1H-1,3-benzodiazole-6-carboxylic acid]
< 0.05 | N#Cc1cc(F)ccc1OCc1cc([C@@H]2CCN(Cc3nc4ccc(C(=O)O)cc4n3C[C@@H]3CCO3)C2)ccc1F [Compound 447, 2-{[(3S)-3-{3-[(2-cyano-4-fluorophenoxy)methyl]-4-fluorophenyl}pyrrolidin-1-yl]methyl}-1-{[(2S)-oxetan-2-yl]methyl}-1H-1,3-benzodiazole-6-carboxylic acid]
< 0.05 | N#Cc1ccc(OCc2nc([C@H]3CCN(Cc4nc5ccc(C(=O)O)cc5n4C[C@@H]4CCO4)C3)ccc2F)c(F)c1 (single isomer, unassigned) [Compound 519]
< 0.05 | N#Cc1cc(Cl)ccc1OCc1cccc(OC2CN(Cc3nc4ccc(C(=O)O)cc4n3C[C@@H]3CCO3)C2)c1 [Compound 194]
< 0.05 | N#Cc1cc(Cl)ccc1OCc1cccc(OC2CN(Cc3nc4ccc(C(=O)O)cc4n3Cc3ncco3)C2)c1 [Compound 229, 2-[(3-{3-[(4-chloro-2-cyanophenoxy)methyl]phenoxy}azetidin-1-yl)methyl]-1-[(1,3-oxazol-2-yl)methyl]-1H-1,3-benzodiazole-6-carboxylic acid]
< 0.05 | O=C(O)c1ccc2nc(CN3CC=C(c4ccnc(COc5ccc(Cl)cc5F)c4)C3)n(Cc3ncco3)c2c1 [Compound 404, 2-[(3-{2-[(4-chloro-2-fluorophenoxy)methyl]pyridin-4-yl}-2,5-dihydro-1H-pyrrol-1-yl)methyl]-1-[(1,3-oxazol-2-yl)methyl]-1H-1,3-benzodiazole-6-carboxylic acid]
< 0.05 | O=C(O)c1ccc2nc(CN3CC=C(c4ccc(F)c(COc5ccc(Cl)cc5F)n4)C3)n(C[C@@H]3CCO3)c2c1 [Example 407, (S)-2-((3-(6-((4-Chloro-2-fluorophenoxy)methyl)-5-fluoropyridin-2-yl)-2,5-dihydro-1H-pyrrol-1-yl)methyl)-1-(oxetan-2-ylmethyl)-1H-benzo[d]imidazole-6-carboxylic acid]
< 0.05 | N#Cc1ccc(OCc2cccc(O[C@H]3CCN(Cc4nc5ccc(C(=O)O)cc5n4C[C@@H]4CCO4)C3)c2)c(F)c1 [Compound 350, 2-{[(3S)-3-{3-[(4-cyano-2-fluorophenoxy)methyl]phenoxy}pyrrolidin-1-yl]methyl}-1-{[(2S)-oxetan-2-yl]methyl}-1H-1,3-benzodiazole-6-carboxylic acid]
< 0.05 | N#Cc1ccc(OCc2cc([C@@H]3CCN(Cc4nc5c(F)cc(C(=O)O)cc5n4C[C@@H]4CCO4)C3)ccc2F)c(F)c1 [Compound 450, 2-{[(3S)-3-{3-[(4-cyano-2-fluorophenoxy)methyl]-4-fluorophenyl}pyrrolidin-1-yl]methyl}-4-fluoro-1-{[(2S)-oxetan-2-yl]methyl}-1H-1,3-benzodiazole-6-carboxylic acid]
< 0.05 | N#Cc1ccc(OCc2nccc(Oc3cc(F)c(Cc4nc5c(F)cc(C(=O)O)cc5n4C[C@@H]4CCO4)cc3F)n2)c(F)c1 [Compound 470, 2-{[4-({2-[(4-cyano-2-fluorophenoxy)methyl]pyrimidin-4-yl}oxy)-2,5-difluorophenyl]methyl}-4-fluoro-1-{[(2S)-oxetan-2-yl]methyl}-1H-1,3-bcnzodiazole-6-carboxylic acid]
< 0.05 | N#Cc1ccc(OCc2nc(C3=CCN(Cc4nc5c(F)cc(C(=O)O)cc5n4C[C@@H]4CCO4)C3)ccc2F)c(F)c1 [Compound 421, 2-[(3-{6-[(4-cyano-2-fluorophenoxy)methyl]-5-fluoropyridin-2-yl}-2,5-dihydro-1H-pyrrol-1-yl)methyl]-4-fluoro-1-{[(2S)-oxetan-2-yl]methyl}-1H-1,3-benzodiazole-6-carboxylic acid]
< 0.05 | N#Cc1ccc(OCc2nc([C@@]34C[C@@H]3CN(Cc3nc5c(F)cc(C(=O)O)cc5n3C[C@@H]3CCO3)C4)ccc2F)c(F)c1 [Compound 531, 2-{[(1S,5S)-1-{6-[(4-cyano-2-fluorophenoxy)methyl]-5-fluoropyridin-2-yl}-3-azabicyclo[3.1.0]hexan-3-yl]methyl}-4-fluoro-1-{[(2S)-oxetan-2-yl]methyl}-1H-1,3-benzodiazole-6-carboxylic acid]
< 0.05 | O=C(O)c1ccc2nc(CN3CC[C@H](c4ccc(F)c(COc5ccc(Cl)cc5F)n4)C3)n(C[C@@H]3CCO3)c2c1 (single isomer, unassigned) [Compound 517]
< 0.05 | N#Cc1ccc(OCc2cccc([C@@H]3CCN(Cc4nc5c(F)cc(C(=O)O)cc5n4C[C@@H]4CCO4)C3)c2)c(F)c1 [Compound 445, 2-{[(3S)-3-{3-[(4-cyano-2-fluorophenoxy)methyl]phenyl}pyrrolidin-1-yl]methyl}-4-fluoro-1-{[(2S)-oxetan-2-yl]methyl}-1H-1,3-benzodiazole-6-carboxylic acid]
< 0.05 | O=C(O)c1ccc2nc(CN3CC=C(c4cc(F)cc(COc5ccc(Cl)cc5F)c4)C3)n(C[C@@H]3CCO3)c2c1 [Compound 418, 2-[(3-{3-[(4-chloro-2-fluorophenoxy)methyl]-5-fluorophenyl}-2,5-dihydro-1H-pyrrol-1-yl)methyl]-1-{[(2S)-oxetan-2-yl]methyl}-1H-1,3-benzodiazole-6-carboxylic acid]
